From patent US6566363B2, “Pyrazole-thiazole compounds, pharmaceutical compositions containing them” (Agouron Pharmaceuticals, Inc., priority 2000, dated 2003)
Where a name gives a salt, the structure may show the parent alone.

How the values were obtained:
CDK4/cyclin D3 = biological target: T1, CDK4/cyclin D3 (Homo sapiens, UniProt P11802); experiment: Inhibition of CDK4/Cyclin D retinoblastoma kinase activity; type: biochemical; conditions: for Ki: apparent Ki, Rb fragment substrate, 25 μM ATP
T1 construct: made in house; host or cells: insect cells co-infected with baculovirus expression vectors
Protocol: (§1) Cyclin-dependent kinase activity was measured by quantifying the enzyme-catalyzed, time-dependent incorporation of radioactive phosphate from [^32P]ATP or [^33P]ATP into a protein substrate. […] Reactions were initiated with enzyme, incubated at 30° C., and terminated after 20 minutes by the addition of ethylenediaminetetraacetic acid (EDTA) to 250 mM. […] Radioactivity was quantified by exposing the dried membranes to a phosphorimager.
(§2) Apparent Ki values were measured by assaying enzyme activity in the presence of different inhibitor compound concentrations and subtracting the background radioactivity measured in the absence of enzyme.
Phosphorylated Rb substrate was captured by microfiltration on a nitrocellulose membrane and quantified using a phosphorimager as described above. For measurement of tight-binding inhibitors, the enzyme complex concentration was lowered to 5 nM, and the assay duration was extended to 60 minutes, during which the time-dependence of product formation was linear.

HCT 116 cell line = experiment: Inhibition of cell growth, MTT tetrazolium salt assay; type: cell-based
Protocol: Inhibition of cell growth was measured using the tetrazolium salt assay, which is based on the ability of viable cells to reduce 3-(4,5-dimethylthiazol-2-yl)-2,5-[2H]-diphenyltetrazolium bromide (MTT) to formazan (Mossman, Journal of Immunological Methods, vol. 65 (1983), pp. 55-58). The water-insoluble purple formazan product was then detected spectrophotometrically. The HCT 116 cell line was grown in 96-well plates. Cells were plated in the appropriate medium at a volume of 135 μl/well in McCoy's 5A Medium. Plates were incubated for four hours before addition of inhibitor compounds. Different concentrations of inhibitor compounds were added in 0.5% (v/v) dimethylsulfoxide (15 μL/well), and cells were incubated at 37° C. (5% CO2) for four to six days (depending on cell type). At the end of the incubation, MTT was added to a final concentration of 0.2 mg/mL, and cells were incubated for 4 hours more at 37° C. After centrifugation of the plates and removal of medium, the absorbence of the formazan (solubilized in dimethylsulfoxide) was measured at 540 nm. The concentration of inhibitor compound causing 50% inhibition of growth was determined from the linear portion of a semi-log plot of inhibitor concentration versus percentage inhibition. All results were compared to control cells treated only with 0.5% (v/v) dimethylsulfoxide.

CDK2/cyclin A = biological target: T2, CDK2/cyclin A (Homo sapiens, UniProt P24941); experiment: Inhibition of CDK2/Cyclin A retinoblastoma kinase activity; type: biochemical; conditions: for Ki: apparent Ki, Rb fragment substrate, 25 μM ATP
T2 construct: made in house; host or cells: CDK2: insect cells (baculovirus); cyclin A: E. coli, then limited proteolysis
Protocol: as §1, §2
A complex of CDK2 and proteolyzed cyclin A was prepared and purified by gel filtration. […] Ki values were measured as described above.

T1 sequence (P11802 whole entry, the tested form may be a part): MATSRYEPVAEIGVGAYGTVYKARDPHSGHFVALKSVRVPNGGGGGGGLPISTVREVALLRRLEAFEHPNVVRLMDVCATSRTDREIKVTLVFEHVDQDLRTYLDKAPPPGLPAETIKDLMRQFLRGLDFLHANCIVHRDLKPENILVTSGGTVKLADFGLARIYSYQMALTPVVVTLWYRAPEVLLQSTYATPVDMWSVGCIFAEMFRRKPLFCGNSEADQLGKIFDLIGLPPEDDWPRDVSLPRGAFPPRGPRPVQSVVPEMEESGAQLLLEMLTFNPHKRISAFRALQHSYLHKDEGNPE
T1 sequence (P30281 whole entry partner, the tested form may be a part): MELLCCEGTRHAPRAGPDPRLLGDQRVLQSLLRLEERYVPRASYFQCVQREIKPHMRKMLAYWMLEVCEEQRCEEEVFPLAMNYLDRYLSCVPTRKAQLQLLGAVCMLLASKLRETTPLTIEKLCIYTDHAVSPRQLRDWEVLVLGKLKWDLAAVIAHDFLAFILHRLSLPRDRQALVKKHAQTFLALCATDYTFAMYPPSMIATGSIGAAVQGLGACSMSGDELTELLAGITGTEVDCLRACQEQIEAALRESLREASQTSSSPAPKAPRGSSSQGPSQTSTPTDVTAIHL

Row | SMILES | inhibition of CDK4/D3 (entry in Ki column) (CDK4/cyclin D3; @ 1 μm) | inhibition of HCT116 growth (entry in IC50 column) (HCT 116 cell line; @ 25 μm) | inhibition of CDK2/A (entry in Ki column) (CDK2/cyclin A; @ 1 μm) | Ki (CDK4/cyclin D3) | IC50 (HCT 116 cell line; Homo sapiens, 144 h, HCT 116 cells, MTT, four to six days, read-out: IC50 HCT116) | Ki (CDK2/cyclin A)
1 | NS(=O)(=O)c1ccc(Nc2nc3[nH]nc(-c4c(F)cccc4F)c3s2)cc1 [Compound 3, 3-(2,6-Difluorophenyl)-5-(4-sulfonamidophenylamino)-1H-pyrazolo [4,5-d]thiazole] | 18% @ 1 μm | 16% @ 25 μm | 41% @ 1 μm |  |  | 
2 | NS(=O)(=O)c1ccc(Nc2nc3[nH]nc(-c4ccccc4)c3s2)cc1 [Compound 2, 3-Phenyl-5-(4-sulfonamidophenylamino)-1H-pyrazolo[4,5-d]thiazole Hydrobromic Acid Salt] |  |  |  | 390 nM | > 25000 nM | 34 nM
3 | CN1CCN(c2ccc(Nc3nc4[nH]nc(-c5ccccc5)c4s3)cc2)CC1 [Compound 4, 5-[4-(4-Methyl-piperazin-1-yl)-phenylamino]-3-phenyl-1H-pyrazolo[4,5-d]thiazole Hydrobromic Acid Salt] |  |  |  | 170 nM |  | 1600 nM
4 | COc1ccc(Nc2nc3[nH]nc(-c4ccccc4)c3s2)cc1 [Compound 1, 5-(4-Methoxyphenylamino)-3-phenyl-1H-pyrazolo[4,5-d]thiazole Hydrobromic Acid Salt] |  |  |  | 1600 nM |  | 1000 nM
